pIC50, pKi: −log10 of the molar value.

Data on five compounds can be found in ChEMBL document CHEMBL1154885, “Heat shock protein 90: inhibitors in clinical trials” (J Med Chem, 2010).

Data set [1] is described as follows: Half life in liver of mouse bearing human A2780 cells at 80 mg/kg, ip administered as DMSO/egg phospholipid formulation. It counts as ADME, organism-based. The arrangement: dose 80 mg/kg, route intraperitoneal.
A short description of data set [2]: AUC in human at 220 mg/m2 administered as DMSO/egg phospholipid formulation. It counts as ADME, organism-based. As to conditions: plasma.
The next data set has as its system Plasma. The experiment in a line: Apparent volume of distribution in plasma of mouse bearing human A2780 cells at 80 mg/kg, ip administered as DMSO/egg phospholipid formulation. The following applies: in vivo. On the set-up: dose 80 mg/kg, route intraperitoneal. The class given is ADME, organism-based.
The nature of data set [3]: Clearance in tumor of mouse bearing human A2780 cells at 80 mg/kg, ip administered as DMSO/egg phospholipid formulation. The class given is ADME, organism-based, Neoplasm. The arrangement: dose 80 mg/kg, route intraperitoneal. The following applies: in vivo.
Data set [4] concerns Liver. Put plainly: Clearance in liver of mouse bearing human A2780 cells at 80 mg/kg, ip administered as DMSO/egg phospholipid formulation. It counts as ADME, organism-based. The arrangement: dose 80 mg/kg, route intraperitoneal. The following applies: in vivo.
The target in data set [5] is T1, Heat shock protein HSP 90-beta (Homo sapiens, UniProt P08238).
Description: Inhibition of HSP90-mediated client protein HER2 degradation in human MCF7 cells
The subject of data set [6] is Liver. The experiment in a line: Apparent volume of distribution in liver of mouse bearing human A2780 cells at 80 mg/kg, ip administered as DMSO/egg phospholipid formulation. It counts as ADME, organism-based. The arrangement: dose 80 mg/kg, route intraperitoneal. The following applies: in vivo.
Data set [7] is described as follows: Cmax in liver of mouse bearing human A2780 cells at 80 mg/kg, ip administered as DMSO/egg phospholipid formulation. The class given is ADME, organism-based. The arrangement: dose 80 mg/kg, route intraperitoneal.
Data set [8] is described as follows: Apparent volume of distribution in tumor of mouse bearing human A2780 cells at 80 mg/kg, ip administered as DMSO/egg phospholipid formulation. As to conditions: in vivo. The class given is ADME, organism-based, Neoplasm. The arrangement: dose 80 mg/kg, route intraperitoneal.
A short description of data set [9]: AUC in plasma of mouse bearing human A2780 cells at 80 mg/kg, ip administered as DMSO/egg phospholipid formulation. The class given is ADME, organism-based. On the set-up: dose 80 mg/kg, route intraperitoneal.
For data set [10], the target named is T1, Heat shock protein HSP 90-beta. The source holds these as a separate data set.
Description: (§1) Inhibition of HSP90-mediated client protein HER2 degradation
Data set [11] in a line: Half life in human at 220 mg/m2 administered as DMSO/egg phospholipid formulation. The class given is ADME, organism-based. As to conditions: in vivo.
The target of data set [12] is T1, Heat shock protein HSP 90-beta. This is another data set of the same source.
Description: Binding affinity to HSP90 under reducing conditions in presence of TECP
Data set [13] shares this target. This is another data set of the same source.
Description: Binding affinity to HSP90 under non-reducing conditions in absence of TECP
Data set [14] is described as follows: Cmax in tumor of mouse bearing human A2780 cells at 80 mg/kg, ip administered as DMSO/egg phospholipid formulation. The class given is ADME, organism-based, Neoplasm. The arrangement: dose 80 mg/kg, route intraperitoneal. As to conditions: read-out: Cmax_tumor.
Data set [15] can be described thus: Half life in tumor of mouse bearing human A2780 cells at 80 mg/kg, ip administered as DMSO/egg phospholipid formulation. The class given is ADME, organism-based, Neoplasm. On the set-up: dose 80 mg/kg, route intraperitoneal.
Data set [16] in a line: Tmax in human at 220 mg/m2 administered as DMSO/egg phospholipid formulation. It counts as ADME, organism-based. The following applies: in vivo.
Data set [17] can be described thus: AUC in tumor of mouse bearing human A2780 cells at 80 mg/kg, ip administered as DMSO/egg phospholipid formulation. The arrangement: dose 80 mg/kg, route intraperitoneal. The class given is ADME, organism-based, Neoplasm.
A short description of data set [18]: Cmax in human at 220 mg/m2 administered as DMSO/egg phospholipid formulation. It counts as ADME, organism-based. The following applies: in vivo.
A short description of data set [19]: Half life in plasma of mouse bearing human A2780 cells at 80 mg/kg, ip administered as DMSO/egg phospholipid formulation. The class given is ADME, organism-based. On the set-up: dose 80 mg/kg, route intraperitoneal.
Data set [20] in a line: Cmax in plasma of mouse bearing human A2780 cells at 80 mg/kg, ip administered as DMSO/egg phospholipid formulation. The class given is ADME, organism-based. On the set-up: dose 80 mg/kg, route intraperitoneal.
Data set [21] can be described thus: Volume of distribution at steady state in human at 220 mg/m2 administered as DMSO/egg phospholipid formulation. As to conditions: in vivo, read-out: Vdss. It counts as ADME, organism-based.
Data set [22] in a line: AUC in liver of mouse bearing human A2780 cells at 80 mg/kg, ip administered as DMSO/egg phospholipid formulation. The class given is ADME, organism-based. On the set-up: dose 80 mg/kg, route intraperitoneal.
A short description of data set [23]: Clearance in plasma of mouse bearing human A2780 cells at 80 mg/kg, ip administered as DMSO/egg phospholipid formulation. The class given is ADME, organism-based. The arrangement: dose 80 mg/kg, route intraperitoneal.
Data set [24] has as its target T1, Heat shock protein HSP 90-beta. This is another data set of the same source.
Description: as §1

T1 sequence (P08238 whole entry): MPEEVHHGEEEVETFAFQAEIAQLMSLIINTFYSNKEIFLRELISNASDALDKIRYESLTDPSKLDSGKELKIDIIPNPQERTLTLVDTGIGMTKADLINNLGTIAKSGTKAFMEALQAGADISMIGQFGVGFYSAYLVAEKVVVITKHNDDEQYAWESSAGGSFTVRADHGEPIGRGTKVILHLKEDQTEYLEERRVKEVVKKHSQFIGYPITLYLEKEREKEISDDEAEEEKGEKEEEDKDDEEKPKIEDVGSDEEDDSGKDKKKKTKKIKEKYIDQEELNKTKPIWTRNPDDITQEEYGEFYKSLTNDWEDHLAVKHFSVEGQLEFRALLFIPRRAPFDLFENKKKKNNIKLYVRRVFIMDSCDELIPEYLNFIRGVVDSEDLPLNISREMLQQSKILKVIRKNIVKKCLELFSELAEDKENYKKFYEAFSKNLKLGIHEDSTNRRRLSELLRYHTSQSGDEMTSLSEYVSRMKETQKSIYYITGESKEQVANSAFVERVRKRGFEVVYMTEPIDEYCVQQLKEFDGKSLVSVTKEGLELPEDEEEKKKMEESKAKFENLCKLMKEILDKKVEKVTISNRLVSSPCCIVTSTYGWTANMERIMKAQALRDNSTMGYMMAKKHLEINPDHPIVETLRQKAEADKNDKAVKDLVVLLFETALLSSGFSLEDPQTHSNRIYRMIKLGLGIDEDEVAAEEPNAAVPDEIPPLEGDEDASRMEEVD

One may read the half-life as how long it takes for the measured level to halve. The term AUC denotes the area under the concentration-time curve, a measure of exposure. Higher therefore signals high exposure. For orientation: pIC50 means the negative decadic logarithm of the IC50, by convention in mol/L. As usually defined, the pKi is the negative decadic logarithm of the Ki, by convention in mol/L. A low value points to a large Ki. By Tmax is commonly meant the time from dosing to the highest level. Broadly, the CL/F is the apparent clearance, not corrected for the fraction that reaches the circulation. As for `CO[C@H]1/C=C\C=C(/C)C(=O)NC2=CC(=O)C(N)=C(C[C@@H](C)C[C@H](OC)[C@H](O)[C@@H](C)/C=C(\C)[C@@H]1OC(N)=O)C2=O`, the half-life was 1.8 h in data set [1], 6.9 h in data set [11], 13.7 h in [15] and 1.2 h in data set [19]. For the same compound, the AUC in data set [2] was 21 µM·h; in data set [9] it was 15 µM·h; in [17] it was 43 µM·h; in data set [22] it was 59 µM·h. Moreover, the Vz turned out to be 0.18 L in the data set with Plasma, 0.06 L with Liver [6] and 0.49 L in [8]. For the same compound, the CL in [3] was found to be 0.03 L/h; with Liver [4], 0.02 L/h. Besides, the pIC50 is 7.92 in data set [5] and 8.15 in data set [10]. Also, the Cmax is 18 µM in data set [7], 3.5 µM in [14], 3 µM in [18] and 4.8 µM in data set [20]. Also, the negative-log Ki (pKi) in data set [12] was 8.52; in data set [13], 7.68. Besides, the time to peak (Tmax) in data set [16] stood at 1.7 h. In addition, in [21], the Vd stood at 230 L. Besides, in [23], the apparent clearance CL/F was 1.83 mL/min.
As for `C#CCCCn1c(Sc2cc3c(cc2Br)OCO3)nc2c(N)ncnc21`, the Activity in data set [24] stood at 30 nM.
In data set [24], `CCCCn1c(Cc2ccc(OC)c(OC)c2OC)nc2c(N)ncnc21` displayed an Activity of 40000 nM.
In [24], `CCOP(=O)(CCn1c(Sc2nc3cccc(Cl)c3s2)nc2c(N)ncnc21)OCC` had an Activity of 30 nM.
For the compound `COc1ccc(I)c(Sc2nc3c(N)ncnc3n2CCNCC(C)(C)C)c1`, the Activity in data set [24] amounted to 30 nM.
